Results taken from ChEMBL document CHEMBL4219066, “Identification and Mitigation of Reactive Metabolites of 2-Aminoimidazole-Containing Microsomal Prostaglandin E Synthase-1 Inhibitors Terminated Due to Clinical Drug-Induced Liver Injury” (J Med Chem, 2018).

Key:
[1] = Drug metabolism in rat hepatocytes assessed as N-carbamimidoyl-2-chloro-5-(pivalamidomethyl)benzamide formation at 2 uM after 4 hrs by LC-MS/MS analysis; type: ADME, cell-based, Hepatocyte
[2] = Drug metabolism in human hepatocytes assessed as N-carbamimidoyl-2-chloro-5-(pivalamidomethyl)benzamide formation at 2 uM after 4 hrs by LC-MS/MS analysis; type: ADME, cell-based, Hepatocyte
[3] = Drug metabolism in rat hepatocytes assessed as 2-chloro-N-(4-(hydroxymethyl)-1H-imidazol-2-yl)-5-(pivalamidomethyl)benzamide formation at 2 uM after 4 hrs by LC-MS/MS analysis; type: ADME, cell-based, Hepatocyte
[4] = Drug metabolism in human hepatocytes assessed as 2-chloro-5-((3-hydroxy-2,2-dimethylpropanamido)methyl)-N-(4-methyl-1H-imidazol-2-yl)benzamide formation at 2 uM after 4 hrs by LC-MS/MS analysis; type: ADME, cell-based, Hepatocyte
[5] = Drug metabolism in human hepatocytes assessed as 2-chloro-N-(4-(hydroxymethyl)-1H-imidazol-2-yl)-5-(pivalamidomethyl)benzamide formation at 2 uM after 4 hrs by LC-MS/MS analysis; type: ADME, cell-based, Hepatocyte
[6] = Drug metabolism in rat hepatocytes assessed as 2-chloro-5-((3-hydroxy-2,2-dimethylpropanamido)methyl)-N-(4-methyl-1H-imidazol-2-yl)benzamide formation at 2 uM after 4 hrs by LC-MS/MS analysis; type: ADME, cell-based, Hepatocyte
[7] = Drug metabolism in human hepatocytes assessed as M2 metabolite formation at 2 uM after 4 hrs by LC-MS/MS analysis; type: ADME, cell-based, Hepatocyte
[8] = Drug metabolism in human hepatocytes assessed as N-carbamimidoyl-2-(difluoromethyl)-5-(pivalamidomethyl)nicotinamide formation at 2 uM after 4 hrs by LC-MS/MS analysis; type: ADME, cell-based, Hepatocyte
[9] = Drug metabolism in rat hepatocytes assessed as M2 metabolite formation at 2 uM after 4 hrs by LC-MS/MS analysis; type: ADME, cell-based, Hepatocyte
[10] = Drug metabolism in dog hepatocytes assessed as N-carbamimidoyl-2-(difluoromethyl)-5-(pivalamidomethyl)nicotinamide formation at 2 uM after 4 hrs by LC-MS/MS analysis; type: ADME, cell-based, Canis lupus familiaris, Hepatocyte
[11] = Drug metabolism in human liver microsomes assessed as metabolite M2 formation at 2 uM in presence of 1:1 ratio of unlabeled GSH and [glycine 13C2,15N]-labelled GSH after 0.5 hrs by HPLC-MS analysis; type: ADME, microsome
[12] = Drug metabolism in Beagle dog plasma assessed as (2S,3S,4S,5R,6R)-3,4,5-trihydroxy-6-(4-methyl-5-(4-(trifluoromethyl)phenyl)-1H-imidazol-2-ylamino)tetrahydro-2H-pyran-2-carboxylic acid formation at 300 to 600 mg/kg, po measured after 2 hrs post dose by LC/MS analysis; type: ADME, organism-based, Canis lupus familiaris; settings: in vivo
[13] = Drug metabolism in Beagle dog plasma assessed as N-(4-methyl-5-(4-(trifluoromethyl)phenyl)-1H-imidazol-2-yl)acetamide formation at 300 to 600 mg/kg, po measured after 2 hrs post dose by LC/MS analysis; type: ADME, organism-based, Canis lupus familiaris; settings: in vivo
[14] = Drug metabolism in dog hepatocytes assessed as M2 metabolite formation at 2 uM after 4 hrs by LC-MS/MS analysis; type: ADME, cell-based, Canis lupus familiaris, Hepatocyte
[15] = Drug metabolism in human hepatocytes assessed as 2-(difluoromethyl)-5-((3-hydroxy-2,2-dimethylpropanamido)methyl)-N-(4-methyl-5-(4-(trifluoromethyl)phenyl)-1H-imidazol-2-yl)nicotinamide formation at 2 uM after 4 hrs by LC-MS/MS analysis; type: ADME, cell-based, Hepatocyte
[16] = Drug metabolism in rat hepatocytes assessed as N-carbamimidoyl-2-(difluoromethyl)-5-(pivalamidomethyl)nicotinamide formation at 2 uM after 4 hrs by LC-MS/MS analysis; type: ADME, cell-based, Hepatocyte
[17] = Drug metabolism in dog hepatocytes assessed as 2-(difluoromethyl)-5-((3-hydroxy-2,2-dimethylpropanamido)methyl)-N-(4-methyl-5-(4-(trifluoromethyl)phenyl)-1H-imidazol-2-yl)nicotinamide formation at 2 uM after 4 hrs by LC-MS/MS analysis; type: ADME, cell-based, Canis lupus familiaris, Hepatocyte
[18] = Drug metabolism in human liver microsomes assessed as M5 metabolite formation at 2 uM in presence of 1:1 ratio of unlabeled GSH and [glycine 13C2,15N]-labelled GSH after 0.5 hrs by HPLC-MS analysis; type: ADME, microsome
[19] = Drug metabolism in dog hepatocytes assessed as 2-(difluoromethyl)-5-((3-hydroxy-2,2-dimethylpropanamido)methyl)-N-(4-(hydroxymethyl)-5-(4-(trifluoromethyl)phenyl)-1H-imidazol-2-yl)nicotinamide formation at 2 uM after 4 hrs by LC-MS/MS analysis; type: ADME, cell-based, Canis lupus familiaris, Hepatocyte
[20] = Drug metabolism in rat hepatocytes assessed as 2-(difluoromethyl)-5-((3-hydroxy-2,2-dimethylpropanamido)methyl)-N-(4-methyl-5-(4-(trifluoromethyl)phenyl)-1H-imidazol-2-yl)nicotinamide formation at 2 uM after 4 hrs by LC-MS/MS analysis; type: ADME, cell-based, Hepatocyte
[21] = Drug metabolism in Sprague-Dawley rat plasma assessed as N-(4-methyl-5-(4-(trifluoromethyl)phenyl)-1H-imidazol-2-yl)acetamide formation at 1000 mg/kg, po measured after 2 hrs post dose by LC/MS analysis; type: ADME, organism-based; settings: in vivo
[22] = Drug metabolism in human liver microsomes assessed as metabolite M6 formation at 2 uM in presence of 1:1 ratio of unlabeled GSH and [glycine 13C2,15N]-labelled GSH after 0.5 hrs by HPLC-MS analysis; type: ADME, microsome
[23] = Drug metabolism in Sprague-Dawley rat plasma assessed as 2-(difluoromethyl)-5-((2-hydroxy-2-methylpropanamido)methyl)-N-(4-methyl-5-(4-(trifluoromethyl)phenyl)-1H-imidazol-2-yl)nicotinamide formation at 1000 mg/kg, po measured after 2 hrs post dose by LC/MS analysis; type: ADME, organism-based; settings: in vivo
[24] = Drug metabolism in human liver microsomes assessed as metabolite M7 formation at 2 uM in presence of 1:1 ratio of unlabeled GSH and [glycine 13C2,15N]-labelled GSH after 0.5 hrs by HPLC-MS analysis; type: ADME, microsome
[25] = Drug metabolism in Beagle dog plasma assessed as 2-(difluoromethyl)-5-((3-hydroxy-2-methylpropanamido)methyl)-N-(4-methyl-5-(4-(trifluoromethyl)phenyl)-1H-imidazol-2-yl)nicotinamide formation at 300 to 600 mg/kg, po measured after 2 hrs post dose by LC/MS analysis; type: ADME, organism-based, Canis lupus familiaris; settings: in vivo
[26] = Drug metabolism in rat hepatocytes assessed as 2-(difluoromethyl)-5-((3-hydroxy-2-methylpropanamido)methyl)-N-(4-methyl-5-(4-(trifluoromethyl)phenyl)-1H-imidazol-2-yl)nicotinamide formation at 2 uM after 4 hrs by LC-MS/MS analysis; type: ADME, cell-based, Hepatocyte
[27] = Drug metabolism in human hepatocytes assessed as 2-(difluoromethyl)-5-((3-hydroxy-2-methylpropanamido)methyl)-N-(4-methyl-5-(4-(trifluoromethyl)phenyl)-1H-imidazol-2-yl)nicotinamide formation at 2 uM after 4 hrs by LC-MS/MS analysis; type: ADME, cell-based, Hepatocyte
[28] = Drug metabolism in Beagle dog plasma assessed as 4-methyl-5-(4-(trifluoromethyl)phenyl)-1H-imidazol-2-amine formation at 300 to 600 mg/kg, po measured after 2 hrs post dose by LC/MS analysis; type: ADME, organism-based, Canis lupus familiaris; settings: in vivo
[29] = Drug metabolism in rat hepatocytes assessed as 2-(difluoromethyl)-5-((2-hydroxy-2-methylpropanamido)methyl)-N-(4-methyl-5-(4-(trifluoromethyl)phenyl)-1H-imidazol-2-yl)nicotinamide formation at 2 uM after 4 hrs by LC-MS/MS analysis; type: ADME, cell-based, Hepatocyte
[30] = Drug metabolism in human hepatocytes assessed as N-carbamimidoyl-2-(difluoromethyl)-5-(isobutyramidomethyl)nicotinamide formation at 2 uM after 4 hrs by LC-MS/MS analysis; type: ADME, cell-based, Hepatocyte
[31] = In vivo drug metabolism in human plasma assessed as 2-(difluoromethyl)-5-((2-hydroxy-2-methylpropanamido)methyl)-N-(4-methyl-5-(4-(trifluoromethyl)phenyl)-1H-imidazol-2-yl)nicotinamide formation HPLC-MS analysis; type: ADME, organism-based
[32] = Drug metabolism in rat hepatocytes assessed as 4-methyl-5-(4-(trifluoromethyl)phenyl)-1H-imidazol-2-amine formation at 2 uM after 4 hrs by LC-MS/MS analysis; type: ADME, cell-based, Hepatocyte
[33] = In vivo drug metabolism in human urine assessed as N-carbamimidoyl-2-(difluoromethyl)-5-(isobutyramidomethyl)nicotinamide formation by HPLC-MS analysis; type: ADME, organism-based
[34] = Drug metabolism in human hepatocytes assessed as 4-methyl-5-(4-(trifluoromethyl)phenyl)-1H-imidazol-2-amine formation at 2 uM after 4 hrs by LC-MS/MS analysis; type: ADME, cell-based, Hepatocyte
[35] = Drug metabolism in Beagle dog plasma assessed as 2-(difluoromethyl)-5-((2-hydroxy-2-methylpropanamido)methyl)-N-(4-methyl-5-(4-(trifluoromethyl)phenyl)-1H-imidazol-2-yl)nicotinamide formation at 300 to 600 mg/kg, po measured after 2 hrs post dose by LC/MS analysis; type: ADME, organism-based, Canis lupus familiaris; settings: in vivo
[36] = Drug metabolism in human hepatocytes assessed as metabolite M7 formation at 2 uM after 4 hrs by LC-MS/MS analysis; type: ADME, cell-based, Hepatocyte
[37] = Drug metabolism in Sprague-Dawley rat plasma assessed as 4-methyl-5-(4-(trifluoromethyl)phenyl)-1H-imidazol-2-amine formation at 1000 mg/kg, po measured after 2 hrs post dose by LC/MS analysis; type: ADME, organism-based; settings: in vivo
[38] = In vivo drug metabolism in human plasma assessed as 2-(difluoromethyl)-5-(methacrylamidomethyl)-N-(4-methyl-5-(4-(trifluoromethyl)phenyl)-1H-imidazol-2-yl)nicotinamide formation HPLC-MS analysis; type: ADME, organism-based
[39] = Drug metabolism in dog hepatocytes assessed as N-carbamimidoyl-2-(difluoromethyl)-5-(isobutyramidomethyl)nicotinamide formation at 2 uM after 4 hrs by LC-MS/MS analysis; type: ADME, cell-based, Canis lupus familiaris, Hepatocyte
[40] = In vivo drug metabolism in human urine assessed as 5-(aminomethyl)-2-(difluoromethyl)-N-(4-methyl-5-(4-(trifluoromethyl)phenyl)-1H-imidazol-2-yl)nicotinamide formation by HPLC-MS analysis; type: ADME, organism-based
[41] = Drug metabolism in rat hepatocytes assessed as metabolite M7 formation at 2 uM after 4 hrs by LC-MS/MS analysis; type: ADME, cell-based, Hepatocyte
[42] = Drug metabolism in Sprague-Dawley rat plasma assessed as 2-(difluoromethyl)-5-((3-hydroxy-2-methylpropanamido)methyl)-N-(4-methyl-5-(4-(trifluoromethyl)phenyl)-1H-imidazol-2-yl)nicotinamide formation at 1000 mg/kg, po measured after 2 hrs post dose by LC/MS analysis; type: ADME, organism-based; settings: in vivo
[43] = Drug metabolism in rat hepatocytes assessed as N-carbamimidoyl-2-(difluoromethyl)-5-(isobutyramidomethyl)nicotinamide formation at 2 uM after 4 hrs by LC-MS/MS analysis; type: ADME, cell-based, Hepatocyte
[44] = Drug metabolism in Sprague-Dawley rat plasma assessed as 5-(aminomethyl)-2-(difluoromethyl)-N-(4-methyl-5-(4-(trifluoromethyl)phenyl)-1H-imidazol-2-yl)nicotinamide formation at 1000 mg/kg, po measured after 2 hrs post dose by LC/MS analysis; type: ADME, organism-based; settings: in vivo
[45] = In vivo drug metabolism in human plasma assessed as 2-(difluoromethyl)-5-((3-hydroxy-2-methylpropanamido)methyl)-N-(4-methyl-5-(4-(trifluoromethyl)phenyl)-1H-imidazol-2-yl)nicotinamide formation HPLC-MS analysis; type: ADME, organism-based
[46] = Drug metabolism in human liver microsomes assessed as metabolite M9 formation at 2 uM in presence of 1:1 ratio of unlabeled GSH and [glycine 13C2,15N]-labelled GSH after 0.5 hrs by HPLC-MS analysis; type: ADME, microsome
[47] = In vivo drug metabolism in human urine assessed as 2-(difluoromethyl)-5-((3-hydroxy-2-methylpropanamido)methyl)-N-(4-methyl-5-(4-(trifluoromethyl)phenyl)-1H-imidazol-2-yl)nicotinamide formation by HPLC-MS analysis; type: ADME, organism-based
[48] = Drug metabolism in rat hepatocytes assessed as 2-(difluoromethyl)-5-(methacrylamidomethyl)-N-(4-methyl-5-(4-(trifluoromethyl)phenyl)-1H-imidazol-2-yl)nicotinamide formation at 2 uM after 4 hrs by LC-MS/MS analysis; type: ADME, cell-based, Hepatocyte
[49] = Drug metabolism in human hepatocytes assessed as 2-(difluoromethyl)-5-((2-hydroxy-2-methylpropanamido)methyl)-N-(4-methyl-5-(4-(trifluoromethyl)phenyl)-1H-imidazol-2-yl)nicotinamide formation at 2 uM after 4 hrs by LC-MS/MS analysis; type: ADME, cell-based, Hepatocyte
[50] = Drug metabolism in dog hepatocytes assessed as 2-(difluoromethyl)-5-((2-hydroxy-2-methylpropanamido)methyl)-N-(4-methyl-5-(4-(trifluoromethyl)phenyl)-1H-imidazol-2-yl)nicotinamide formation at 2 uM after 4 hrs by LC-MS/MS analysis; type: ADME, cell-based, Canis lupus familiaris, Hepatocyte
[51] = In vivo drug metabolism in human urine assessed as 2-(difluoromethyl)-5-((2-hydroxy-2-methylpropanamido)methyl)-N-(4-methyl-5-(4-(trifluoromethyl)phenyl)-1H-imidazol-2-yl)nicotinamide formation by HPLC-MS analysis; type: ADME, organism-based

Measured: Drug metabolism

Cc1c[nH]c(NC(=O)c2cc(CNC(=O)C(C)(C)C)ccc2Cl)n1
Metabolite_Detected: [1] | [2] | [3] | [4] | [5] | [6]

Cc1nc(NC(=O)c2cc(CNC(=O)C(C)(C)C)cnc2C(F)F)[nH]c1-c1ccc(C(F)(F)F)cc1
Metabolite_Detected: [7] | [8] | [9] | [10] | [11] | [12] | [13] | [14] | [15] | [16] | [17] | [18] | [19] | [20] | [21] | [22]

Cc1nc(NC(=O)c2cc(CNC(=O)C(C)C)cnc2C(F)F)[nH]c1-c1ccc(C(F)(F)F)cc1
not listed: [1] | [2] | [3] | [4] | [5] | [6] | [7] | [8] | [9] | [10] | [11] | [12] | [13] | [14] | [15] | [16] | [17] | [18] | [19] | [20] | [21] | [22]
Metabolite_Detected: all other assays above
